Reference: patent EP1946777A1, “Substituted pyrazoline for preventing weight gain” (Laboratorios del Dr. Esteve S.A., priority 2007, dated 2008)
Read-outs that look alike come from different tables or passages of the source.

Columns and labels:
rat CB1 receptors = biological target: T1, rat CB1 receptors (Rattus norvegicus, UniProt P20272); test: Affinity for rat CB1 receptors: competitive binding of [3H]-CP 55,940 to rat cerebellum membranes; conditions: 1 nM [3H]-CP 55,940, rat cerebellum membranes, 1 hour at 30°C
T1 construct: cerebella from male Wistar rats (250-300g) were carefully dissected on ice and homogenates were prepared; from tissue; host or cells: rat cerebellum (male Wistar) membrane homogenate
T1 sequence (P20272 whole entry): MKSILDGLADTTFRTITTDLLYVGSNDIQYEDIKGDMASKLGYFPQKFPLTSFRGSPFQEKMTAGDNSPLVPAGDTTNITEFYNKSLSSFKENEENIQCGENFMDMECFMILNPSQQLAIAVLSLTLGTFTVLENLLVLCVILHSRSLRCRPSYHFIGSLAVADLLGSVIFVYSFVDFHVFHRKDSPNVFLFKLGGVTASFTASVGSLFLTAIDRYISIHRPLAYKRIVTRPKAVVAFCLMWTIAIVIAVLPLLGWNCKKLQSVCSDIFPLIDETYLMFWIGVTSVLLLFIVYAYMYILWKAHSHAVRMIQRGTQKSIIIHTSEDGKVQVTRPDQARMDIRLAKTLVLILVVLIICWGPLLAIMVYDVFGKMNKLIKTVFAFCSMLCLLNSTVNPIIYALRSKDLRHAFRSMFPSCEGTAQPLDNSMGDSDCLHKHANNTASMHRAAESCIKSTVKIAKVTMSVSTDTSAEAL
Procedure: Binding affinity to CB1 receptor was evaluated according to the method of Govaerts et al (2004) with the following modifications Briefly, cerebella from male Wistar rats (250-300g) were carefully dissected on ice and homogenates were prepared in cold 50 mM Tris-HCl, 5 mM MgCl2, 1 mM EDTA, 0.25 M sucrose, pH 7.4 with a Potter-Heljheim homogenizer and the suspension was centrifuged at 1,000 x g for 5 minutes. The supernatants were collected and centrifuged 50,000 x g for 15 min. The resulting pellets were resuspended in Tris-HCl buffer without sucrose, homogenized and incubated for 15 min at 37°C in an orbital shaker bath and centrifuged again at 50,000 x g for 15 min. Pellets were weighed, resuspended in Tris-HCl buffer without sucrose, homogenized with an Ultraturrax at 13,500 rpm for 3 x 5 seconds and aliquoted in 0.9 ml volumes in Eppendorf tubes. Aliquots were centrifuged at 20,800 x g for 5 minutes, supernatants discarded and pellets were frozen at -80°C until use. Total protein concentration was determined using a Bio-Rad commercial assay base on the Lowry method. […]
Binding data were analyzed by non-linear regression with the software GraphPad Prism Version 3.03.

[1] = Figure 5; cited from earlier work
[2] = Figure 4; cited from earlier work

With O=C(NN1CCCCC1)C1=NN(c2ccc(Cl)cc2Cl)C(c2ccc(Cl)cc2)C1 (stereo not shown) [Subgroup A1, Chemical example 1] the IC50 (rat CB1 receptors; read-out: IC50) was 26 nM and the IC50 (rat CB1 receptors; read-out: pIC50 (converted)) was 22.4 nM.
For Cc1c(C(=O)NN2CCCCC2)nn(-c2ccc(Cl)cc2Cl)c1-c1ccc(Cl)cc1 [rimonabant], the “ability to prevent antipsychotic-induced weight-gain” value [1] is given as “only partially effective”.
In the case of CC(C)CC(N(C)C)C1(c2ccc(Cl)cc2)CCC1 (stereo not shown) [sibutramine], the “prevention of antipsychotic-induced weight-gain” value [2] is listed as “Partial prevention of antipsychotic-induced weight-gain”.
